Experimental data reported in patent US20250114345A1, “COMPOUNDS AND COMPOSITIONS AS CBP/P300 DEGRADERS AND USES THEREOF” (Oncopia Therapeutics, Inc. d/b/a/ SK Life Science Labs, priority 2023, published 2025).

Experiments:
[1] = molecular target: T1, CBP (Homo sapiens, UniProt Q92793); assay: CBP degradation, HiBit technology in A549 CBP HiBit cells (24 h); assay type: cell-based; conditions: 24 hrs post treatment
T1 construct: host or cells: A549 CBP HiBit cells
Outline: (§1)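 Degradation potency and Dmax came from luminescence after 10 min room-temperature lysis with HiBit detection buffer. Beforehand, HiBit-tagged A549 lines received serial compound dilutions (10 mM DMSO stocks) at 37 °C, 5% CO2. CBP cells were read at 24 h, p300 cells at 2 h.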

[2] = molecular target: T2, p300 (Homo sapiens, UniProt Q09472); assay: P300 degradation, HiBit technology in A549 P300 HiBit cells (2 h); assay type: cell-based; conditions: 2 hrs post treatment; for Dmax: A549, A549 P300 HiBit cells; for DC50: A549 P300 HiBit cells
T2 construct: host or cells: A549 P300 HiBit cells
T2 sequence (Q09472 whole entry): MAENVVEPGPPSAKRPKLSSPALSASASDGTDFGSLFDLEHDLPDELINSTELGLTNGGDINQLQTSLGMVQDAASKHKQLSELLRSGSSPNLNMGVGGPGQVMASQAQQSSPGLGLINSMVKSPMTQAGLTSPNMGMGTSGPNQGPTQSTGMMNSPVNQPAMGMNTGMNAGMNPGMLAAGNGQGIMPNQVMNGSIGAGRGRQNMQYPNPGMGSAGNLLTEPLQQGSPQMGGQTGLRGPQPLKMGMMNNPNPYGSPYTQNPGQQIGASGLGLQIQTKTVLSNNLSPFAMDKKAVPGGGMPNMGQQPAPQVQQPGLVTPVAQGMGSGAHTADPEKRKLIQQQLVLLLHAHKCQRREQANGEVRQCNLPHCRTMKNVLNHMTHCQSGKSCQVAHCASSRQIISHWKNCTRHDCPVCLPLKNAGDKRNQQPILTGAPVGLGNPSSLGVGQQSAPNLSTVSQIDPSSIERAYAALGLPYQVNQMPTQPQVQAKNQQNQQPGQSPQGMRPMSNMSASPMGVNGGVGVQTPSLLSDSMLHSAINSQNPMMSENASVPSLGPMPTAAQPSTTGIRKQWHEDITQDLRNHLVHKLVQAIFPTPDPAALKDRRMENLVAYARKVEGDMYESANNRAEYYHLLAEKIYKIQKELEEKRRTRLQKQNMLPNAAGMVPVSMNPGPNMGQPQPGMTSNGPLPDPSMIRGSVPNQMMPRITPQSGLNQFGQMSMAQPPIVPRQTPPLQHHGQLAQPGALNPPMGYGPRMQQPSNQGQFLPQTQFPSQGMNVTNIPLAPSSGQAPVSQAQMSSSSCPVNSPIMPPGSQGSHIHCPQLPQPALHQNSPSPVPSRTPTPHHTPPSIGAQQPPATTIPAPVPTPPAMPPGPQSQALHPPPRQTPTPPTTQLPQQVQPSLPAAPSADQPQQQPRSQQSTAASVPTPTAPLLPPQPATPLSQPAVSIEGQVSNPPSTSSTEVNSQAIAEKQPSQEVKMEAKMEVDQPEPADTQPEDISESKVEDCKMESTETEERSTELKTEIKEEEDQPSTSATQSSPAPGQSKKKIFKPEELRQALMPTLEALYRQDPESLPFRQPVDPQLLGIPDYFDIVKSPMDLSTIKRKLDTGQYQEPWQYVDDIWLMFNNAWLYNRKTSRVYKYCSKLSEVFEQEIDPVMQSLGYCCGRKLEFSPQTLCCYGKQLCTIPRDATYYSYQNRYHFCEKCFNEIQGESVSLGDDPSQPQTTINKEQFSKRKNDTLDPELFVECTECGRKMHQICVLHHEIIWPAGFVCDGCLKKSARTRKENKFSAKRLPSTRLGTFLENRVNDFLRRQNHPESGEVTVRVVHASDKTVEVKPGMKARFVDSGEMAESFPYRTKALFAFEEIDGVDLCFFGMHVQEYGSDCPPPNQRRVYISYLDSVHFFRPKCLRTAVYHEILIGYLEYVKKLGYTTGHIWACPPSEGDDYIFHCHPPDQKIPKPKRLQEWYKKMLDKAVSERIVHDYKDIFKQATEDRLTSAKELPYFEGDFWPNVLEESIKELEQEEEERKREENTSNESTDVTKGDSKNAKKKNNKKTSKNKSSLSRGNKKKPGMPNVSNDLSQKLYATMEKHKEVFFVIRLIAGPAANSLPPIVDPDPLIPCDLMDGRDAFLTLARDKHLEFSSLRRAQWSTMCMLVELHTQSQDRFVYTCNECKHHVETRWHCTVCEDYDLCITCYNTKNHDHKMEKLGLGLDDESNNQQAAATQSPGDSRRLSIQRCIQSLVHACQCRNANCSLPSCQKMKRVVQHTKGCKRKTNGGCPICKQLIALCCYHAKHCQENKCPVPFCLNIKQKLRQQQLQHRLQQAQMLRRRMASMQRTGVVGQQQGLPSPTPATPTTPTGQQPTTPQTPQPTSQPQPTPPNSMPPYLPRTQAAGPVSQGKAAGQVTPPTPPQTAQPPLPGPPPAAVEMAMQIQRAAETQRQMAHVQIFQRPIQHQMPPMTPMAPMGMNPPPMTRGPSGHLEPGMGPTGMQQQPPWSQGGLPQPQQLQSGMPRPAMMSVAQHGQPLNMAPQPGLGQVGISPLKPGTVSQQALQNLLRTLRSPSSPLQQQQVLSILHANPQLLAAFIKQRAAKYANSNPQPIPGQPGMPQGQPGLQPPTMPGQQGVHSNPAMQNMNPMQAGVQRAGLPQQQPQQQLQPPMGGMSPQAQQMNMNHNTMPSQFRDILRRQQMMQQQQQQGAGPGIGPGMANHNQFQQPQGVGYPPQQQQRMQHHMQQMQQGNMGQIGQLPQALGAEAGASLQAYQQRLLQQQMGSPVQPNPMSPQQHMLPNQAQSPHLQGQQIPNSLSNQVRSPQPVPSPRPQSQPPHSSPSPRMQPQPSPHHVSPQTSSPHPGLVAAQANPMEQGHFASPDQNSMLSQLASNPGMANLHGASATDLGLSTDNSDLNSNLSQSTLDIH
Outline: as §1

T1 sequence (Q92793 whole entry): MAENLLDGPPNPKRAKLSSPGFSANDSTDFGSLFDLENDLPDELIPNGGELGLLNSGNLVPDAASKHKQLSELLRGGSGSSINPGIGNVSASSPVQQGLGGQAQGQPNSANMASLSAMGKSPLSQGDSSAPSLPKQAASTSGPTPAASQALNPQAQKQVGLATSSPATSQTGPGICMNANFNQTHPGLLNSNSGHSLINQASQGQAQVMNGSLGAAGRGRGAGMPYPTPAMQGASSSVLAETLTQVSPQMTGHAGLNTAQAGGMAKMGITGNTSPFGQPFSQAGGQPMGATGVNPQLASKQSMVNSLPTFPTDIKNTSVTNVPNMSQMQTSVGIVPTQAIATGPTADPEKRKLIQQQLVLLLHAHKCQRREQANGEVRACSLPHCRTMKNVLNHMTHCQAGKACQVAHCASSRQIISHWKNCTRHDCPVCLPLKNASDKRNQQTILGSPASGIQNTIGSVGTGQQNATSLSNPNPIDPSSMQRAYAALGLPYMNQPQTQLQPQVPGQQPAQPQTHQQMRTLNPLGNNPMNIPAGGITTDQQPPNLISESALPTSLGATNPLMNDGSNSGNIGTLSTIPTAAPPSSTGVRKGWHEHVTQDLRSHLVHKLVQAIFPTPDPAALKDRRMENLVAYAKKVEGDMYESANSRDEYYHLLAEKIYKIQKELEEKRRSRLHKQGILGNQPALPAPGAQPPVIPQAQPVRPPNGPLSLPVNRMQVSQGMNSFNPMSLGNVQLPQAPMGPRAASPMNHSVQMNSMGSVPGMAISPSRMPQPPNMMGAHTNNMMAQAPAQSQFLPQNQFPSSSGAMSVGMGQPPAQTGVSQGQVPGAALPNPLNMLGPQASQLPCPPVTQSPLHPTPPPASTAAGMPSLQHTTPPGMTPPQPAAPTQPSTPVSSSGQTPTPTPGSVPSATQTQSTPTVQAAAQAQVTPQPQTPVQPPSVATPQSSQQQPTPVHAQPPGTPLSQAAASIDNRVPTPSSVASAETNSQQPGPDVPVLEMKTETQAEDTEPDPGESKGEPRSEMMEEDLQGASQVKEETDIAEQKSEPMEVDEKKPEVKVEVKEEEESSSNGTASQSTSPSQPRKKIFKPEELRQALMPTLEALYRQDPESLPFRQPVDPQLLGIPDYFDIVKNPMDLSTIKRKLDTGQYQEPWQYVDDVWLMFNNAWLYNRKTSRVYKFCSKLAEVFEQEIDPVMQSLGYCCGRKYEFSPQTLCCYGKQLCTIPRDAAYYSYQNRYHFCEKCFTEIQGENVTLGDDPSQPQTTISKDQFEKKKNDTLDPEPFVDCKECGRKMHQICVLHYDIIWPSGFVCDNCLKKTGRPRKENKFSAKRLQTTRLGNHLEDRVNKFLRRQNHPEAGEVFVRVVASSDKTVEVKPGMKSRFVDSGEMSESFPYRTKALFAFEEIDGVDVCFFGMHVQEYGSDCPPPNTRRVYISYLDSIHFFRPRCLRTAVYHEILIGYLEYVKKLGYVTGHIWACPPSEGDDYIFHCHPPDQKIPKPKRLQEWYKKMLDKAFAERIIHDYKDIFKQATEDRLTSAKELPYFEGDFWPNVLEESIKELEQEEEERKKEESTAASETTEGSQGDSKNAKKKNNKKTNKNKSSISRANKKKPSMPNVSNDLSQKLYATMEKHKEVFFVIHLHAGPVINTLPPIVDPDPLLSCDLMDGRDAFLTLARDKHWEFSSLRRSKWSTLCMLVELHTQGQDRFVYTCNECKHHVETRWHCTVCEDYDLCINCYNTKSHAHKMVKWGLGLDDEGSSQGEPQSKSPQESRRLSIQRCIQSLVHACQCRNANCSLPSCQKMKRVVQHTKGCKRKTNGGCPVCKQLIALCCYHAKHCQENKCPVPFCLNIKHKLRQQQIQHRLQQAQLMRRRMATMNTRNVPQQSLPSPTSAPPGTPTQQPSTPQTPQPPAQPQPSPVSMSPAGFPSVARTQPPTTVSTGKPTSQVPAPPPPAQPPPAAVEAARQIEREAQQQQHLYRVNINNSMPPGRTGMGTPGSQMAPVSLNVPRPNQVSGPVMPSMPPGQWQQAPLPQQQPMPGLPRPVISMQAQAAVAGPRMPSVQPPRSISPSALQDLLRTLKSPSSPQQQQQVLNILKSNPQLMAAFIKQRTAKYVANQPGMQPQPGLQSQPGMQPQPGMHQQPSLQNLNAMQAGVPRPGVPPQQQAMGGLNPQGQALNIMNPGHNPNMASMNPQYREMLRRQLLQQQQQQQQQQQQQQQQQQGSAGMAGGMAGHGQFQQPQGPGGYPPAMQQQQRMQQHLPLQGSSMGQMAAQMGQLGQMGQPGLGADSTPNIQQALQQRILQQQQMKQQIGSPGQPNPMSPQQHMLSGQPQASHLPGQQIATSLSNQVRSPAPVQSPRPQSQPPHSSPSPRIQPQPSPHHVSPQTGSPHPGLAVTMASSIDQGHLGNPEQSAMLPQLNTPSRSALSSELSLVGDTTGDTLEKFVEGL

| Compound | DC50 [1] | Dmax [1] | Dmax [2] | DC50 [2] |
| --- | --- | --- | --- | --- |
| Cc1cc2c(N3CCCc4nc(-c5ccc(C(=O)NCC#Cc6cc7c([C@@H]8CCC(=O)NC8=O)cccc7o6)nc5)ncc43)cc(C3CCOCC3)cc2n(C)c1=O [Example B39, (S)-5-(5-(1,3-dimethyl-2-oxo-7-(tetrahydro-2H-pyran-4-yl)-1,2-dihydroquinolin-5-yl)-5,6,7,8-tetrahydropyrido[3,2-d]pyrimidin-2-yl)-N-(3-(4-(2,6-dioxopiperidin-3-yl)benzofuran-2-yl)prop-2-yn-1-yl)picolinamide] | > 1000 nM | < 20% | > 80% | 1 to 9.9 nM |
| Cc1cc(-c2ncc3c(n2)CCCN3c2cc(C3CCOCC3)cc3c2cc(C)c(=O)n3C)cnc1C(=O)NCC#Cc1ccc2occ(C3CCC(=O)NC3=O)c2c1 (stereo not shown) [Example B42, 5-(5-(1,3-dimethyl-2-oxo-7-(tetrahydro-2H-pyran-4-yl)-1,2-dihydroquinolin-5-yl)-5,6,7,8-tetrahydropyrido[3,2-d]pyrimidin-2-yl)-N-(3-(3-(2,6-dioxopiperidin-3-yl)benzofuran-5-yl)prop-2-yn-1-yl)-3-methylpicolinamide] | > 1000 nM | < 20% | 60 to 79% | 1 to 9.9 nM |
| Cc1cc2c(N3CCCc4nc(-c5ccc(C(=O)NCC#Cc6cc7c(C8CCC(=O)NC8=O)cccc7o6)nc5)ncc43)cc(C3CCOCC3)nc2n(C)c1=O (stereo not shown) [Example B47, 5-(5-(6,8-dimethyl-7-oxo-2-(tetrahydro-2H-pyran-4-yl)-7,8-dihydro-1,8-naphthyridin-4-yl)-5,6,7,8-tetrahydropyrido[3,2-d]pyrimidin-2-yl)-N-(3-(4-(2,6-dioxopiperidin-3-yl)benzofuran-2-yl)prop-2-yn-1-yl)picolinamide] | > 1000 nM | < 20% | > 80% | < 1 nM |
| Cc1cc2c(N3CCCc4nc(-c5ccc(C(=O)NCC#Cc6cc7c([C@H]8CCC(=O)NC8=O)cccc7o6)nc5)ncc43)cc(C3CCOCC3)nc2n(C)c1=O [Example B48, (R)-5-(5-(6,8-dimethyl-7-oxo-2-(tetrahydro-2H-pyran-4-yl)-7,8-dihydro-1,8-naphthyridin-4-yl)-5,6,7,8-tetrahydropyrido[3,2-d]pyrimidin-2-yl)-N-(3-(4-(2,6-dioxopiperidin-3-yl)benzofuran-2-yl)prop-2-yn-1-yl)picolinamide] | 100 to 999 nM | < 20% | > 80% | < 1 nM |
| Cc1cc2c(N3CCCc4nc(-c5ccc(C(=O)NCC#Cc6cc7c([C@@H]8CCC(=O)NC8=O)cccc7o6)nc5)ncc43)cc(C3CCOCC3)nc2n(C)c1=O [Example B49, (S)-5-(5-(6,8-dimethyl-7-oxo-2-(tetrahydro-2H-pyran-4-yl)-7,8-dihydro-1,8-naphthyridin-4-yl)-5,6,7,8-tetrahydropyrido[3,2-d]pyrimidin-2-yl)-N-(3-(4-(2,6-dioxopiperidin-3-yl)benzofuran-2-yl)prop-2-yn-1-yl)picolinamide] | > 1000 nM | < 20% | > 80% | 1 to 9.9 nM |
| Cc1cc2c(N3CCCc4nc(-c5ccc(C(=O)NCC#Cc6ccc7occ(C8CCC(=O)NC8=O)c7c6)nc5)ncc43)nc(N3CCOCC3)nc2n(C)c1=O (stereo not shown) [Example B51, 5-(5-(6,8-dimethyl-2-morpholino-7-oxo-7,8-dihydropyrido[2,3-d]pyrimidin-4-yl)-5,6,7,8-tetrahydropyrido[3,2-d]pyrimidin-2-yl)-N-(3-(3-(2,6-dioxopiperidin-3-yl)benzofuran-5-yl)prop-2-yn-1-yl)picolinamide] | > 1000 nM | < 20% | 40 to 59% | 1 to 9.9 nM |
| Cc1cc2c(N3CCCc4nc(-c5ccc(C(=O)NCC#Cc6ccc7occ(C8CCC(=O)NC8=O)c7c6)nc5)ncc43)cc(C3CCOCC3)cc2n(C)c1=O (stereo not shown) [Example B53, 5-(5-(1,3-dimethyl-2-oxo-7-(tetrahydro-2H-pyran-4-yl)-1,2-dihydroquinolin-5-yl)-5,6,7,8-tetrahydropyrido[3,2-d]pyrimidin-2-yl)-N-(3-(3-(2,6-dioxopiperidin-3-yl)benzofuran-5-yl)prop-2-yn-1-yl)picolinamide] | > 1000 nM | < 20% | > 80% | < 1 nM |
